From patent USRE37793E1, “Method and composition for inhibiting bacteria” (Winthrop University Hospital, priority 1995, dated 2002)

Key:
[1] = test system: gut flora; assay: Effect on gut flora and fecal production; design: species or system rats; settings: rat, in vivo
[2] = test system: E. coli and Salmonella; settings: lag time and 18 hour turbidity only marginally affected
[3] = test system: V.cholerae, S.flexneri, and Y.enterocolitica
[4] = test system: Klebsiella pneumoniae; assay type: cell-based
[5] = test system: Helicobacter pylori; assay type: cell-based
[6] = test system: bacteria; assay: Effect of cations (iron, copper) in culture medium on antibacterial activity; assay type: cell-based; settings: iron added to culture medium
Description: Oxygen tension effects were determined by agar diffusion in aerobic, microaerophilic (Candle jar), and anaerobic (GasPak) conditions. […] Other amounts and ratios were tested. Culture condition effects, such as pH or temperature were evaluated in broth mediums.
Therefore, these antagonists could be used to neutralize BisBAL when necessary.

[7] = test system: vancomycin-resistant enterococci (VRE); assay type: cell-based
[8] = test system: methicillin-resistant S. aureus (MRSA); assay: Agar diffusion, zones of inhibition; assay type: cell-based, Staphylococcus aureus; settings: MRSA (27 isolates); discs Bi(No3)3 157 μg, BAL 186 μg, BisBAL 157/31 μg; 24 h, 37° C.
[9] = test system: bacteria; assay type: cell-based

## O=C([O-])c1ccccc1[O-].[Bi+3].[OH-] [BSS]
[1]
  Effect on gut flora: does not have a significant growth-inhibiting effect

## bismuth nitrate [Bi(NO3)3]
[2]
  Bi^3+ concentration in whose presence bacteria grew well: 250 to 500 µM
[3]
  Bi^3+ concentration bacteria could withstand: up to 50 μM
[4]; subinhibitory levels
  Concentration at which capsule and slime expression is inhibited: greater than 500 μM
[5]
  Zone diameter of inhibition: little or no zones of inhibition
[6]
  Reversal of antibacterial effects by iron: can be reversed by addition of micromolar amounts of iron
[7]
  Zones of Inhibition: 7.3 ± 1.4 mm
[8]
  Zones of Inhibition: 7.3 ± 2.8 mm

## O=S(=O)(O)CC(S)CS (stereo not drawn) [DMPS, 2,3-dimercaptopropane-1-sulfonic acid]
[9]
  Effect of thiol-containing chelator on antibacterial properties of bismuth: do not increase its antibacterial properties

## O=C(O)[C@@H](S)[C@@H](S)C(=O)O [DMSA, dimercapto-succinic acid]
[9]
  Effect of thiol-containing chelator on antibacterial properties of bismuth: do not increase its antibacterial properties

## N[C@@H](CS)C(=O)O [cysteine]
[9]
  Effect of thiol-containing chelator on antibacterial properties of bismuth: do not increase its antibacterial properties

## [H]/N=C(\N/C(=N/[H])NCCCCCCNC(=N)NC(=N)Nc1ccc(Cl)cc1)Nc1ccc(Cl)cc1 [CHX, chlorhexidine]
[4]; even at 0.75 of the MIC
  Effect on CPS expression: no significant effect
